The results in this text go back to US20190233409A1, “SUBSTITUTED 2,3,4,5-TETRAHYDRO-1H-PYRIDO[4,3-B]INDOLES, METHODS FOR USE THEREOF” (priority 2017, published 2019).

The structures appear in SMILES notation. Where a name gives a salt, the structure may show the parent alone.

In this assay the test system is calcium canals regulated by the intracellular calcium depot. The assay is described as follows: Histamine-induced calcium stream in SK-N-SH cells, Phase 2 (lowering of intracellular calcium concentration). Conditions: Homo sapiens, 10 μM histamine, Fura 2 AM, Phase 2: discharge of intraplasmatic calcium. It counts as cell-based.
Regarding `CN1CCc2c(c3cc(F)ccc3n2CCc2cccnc2)C1` [1.2.1(9)HCl, 2-methyl-5-[2-(pyridin-3-yl)ethyl]-8-fluoro-2,3,4,5-tetrahydro-1H-pyrido[4,3-b]indole hydrochloride], the EC50 is 0.297 µM.

With `CN1CCc2c(c3cc(F)ccc3n2CCc2ccncc2)C1` [1.2.1(8)HCl, 2-methyl-5-[2-(pyridin-4-yl)ethyl]-8-fluoro-2,3,4,5-tetrahydro-1H-pyrido[4,3-b]indole hydrochloride], the EC50 came to 0.47 µM.

Turning to `Cc1ccc2c(c1)c1c(n2C#Cc2cccnc2)CCN(C)C1` [1.3.1(7), 2,8-dimethyl-5-(pyridin-3-ylethynyl)-2,3,4,5-tetrahydro-1H-pyrido[4,3-b]indole], the EC50 was greater than 10 µM. Under `Cc1ccc2c(c1)c1c(n2C#Cc2ccccc2)CCN(C)C1` [1.3.1(5), 2,8-dimethyl-5-phenylethynyl-2,3,4,5-tetrahydro-1H-pyrido[4,3-b]indole] stands greater than 10 µM; under `Cc1ccc(CCn2c3c(c4cc(F)ccc42)CN(C)CC3)cn1` [1.2.1(11)HCl, 2-methyl-5-[2-(6-methylpyridin-3-yl)ethyl]-8-fluoro-2,3,4,5-tetrahydro-1H-pyrido[4,3-b]indole hydrochloride], 0.73 µM; under `CN1CCc2c(c3ccccc3n2/C=C\c2ccccc2)C1` [1.1(1), cis-2-methyl-5-(2-phenylethenyl)-2,3,4,5-tetrahydro-1H-pyrido[4,3-b]indole], 0.18 µM.

With `CN1CCc2c(c3ccccc3n2/C=C/c2ccccc2)C1` [1.1(2), trans-2-methyl-5-(2-phenylethenyl)-2,3,4,5-tetrahydro-1H-pyrido[4,3-b]indole], the EC50 is 2.13 µM. Under `CN1CCc2c(c3cc(F)ccc3n2CCc2ccccc2)C1` [1.2.1(7)HCl, 2-methyl-5-(2-phenylethyl)-8 fluoro-2,3,4,5-tetrahydro-1H-pyrido[4,3-b]indole hydrochloride] stands 0.13 µM; under `CN1CCc2c(c3ccccc3n2/C=C/c2ccncc2)C1` [1.1(3), trans-2-methyl-5-[2-(pyridin-4-yl)ethenyl]-2,3,4,5-tetrahydro-1H-pyrido[4,3-b]indole], greater than 10 µM; under `CN1CCc2c(c3cccc(F)c3n2CCc2ccccc2)C1` [1.2.2(1)HCl], 0.25 µM. Regarding `CN1CCc2c(c3ccccc3n2C#Cc2cccnc2)C1` [1.3(3), 2-methyl-5-(pyridin-3-ylethynyl)-2,3,4,5-tetrahydro-1H-pyrido[4,3-b]indole], the EC50 is greater than 10 µM.

Consider `CN1CCc2c(c3ccccc3n2CCc2ccccn2)C1` [1.2(4)HCl, 2-methyl-5-[2-(pyridin-2-yl)ethyl]-2,3,4,5-tetrahydro-1H-pyrido[4,3-b]indole hydrochloride], for which the EC50 was 0.93 µM. In the case of `CN1CCc2c(c3ccccc3n2C#Cc2ccccc2)C1` [1.3(1), 2-methyl-5-phenylethynyl-2,3,4,5-tetrahydro-1H-pyrido[4,3-b]indole], the EC50 is 10.1 µM. Consider `CN1CCc2c(c3cc(F)ccc3n2CCc2ccccn2)C1` [1.2.1(10)HCl, 2-methyl-5-[2-(pyridin-2-yl)ethyl]-8-fluoro-2,3,4,5-tetrahydro-1H-pyrido[4,3-b]indole hydrochloride], for which the EC50 was 0.61 µM.

Turning to `CN1CCc2c(c3ccccc3n2/C=C/c2ccccn2)C1` [1.1(5), trans-2-methyl-5-[2-(pyridin-2-yl)ethenyl]-2,3,4,5-tetrahydro-1H-pyrido[4,3-b]indole], the EC50 was greater than 10 µM.

In the case of `CN1CCc2c(c3ccccc3n2CCc2cccnc2)C1` [1.2(3)HCl, 2-methyl-5-[2-(pyridin-3-yl)ethyl]-2,3,4,5-tetrahydro-1H-pyrido[4,3-b]indole hydrochloride], the EC50 is 0.412 µM. With `Cc1ccc2c(c1)c1c(n2CCc2cnccn2)CCN(C)C1` [1.2.1(6), 2,8-dimethyl-5-[2-(pyrazin-2-yl)ethyl]-2,3,4,5-tetrahydro-1H-pyrido[4,3-b]indole], the EC50 came out at 7.94 µM.

The term EC50 denotes the concentration at which the effect is half-maximal.
